Data: US7851474B2, “Dipiperazinyl ketones and related analogues” (Neurogen Corporation, priority 2005, dated 2010)

Each compound was assayed against T1, chimeric human H3 receptor (Homo sapiens, UniProt Q9Y5N1, E19D) (assay: Chimeric human H3 receptor GTP binding assay (agonist-stimulated GTP-gamma35S binding, Example 7)). Conditions: Table II; assay of Example 7; "*" in Ki; read-out: Ki.
T1 construct: made in house; host or cells: Sf9 insect cells (baculovirus infection); P2 membrane preparation
Format: biochemical
Procedure, shortened: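 IC50 values come from non-linear regression of dose-response curves of filter-bound GTP-gamma^35S, counted by scintillation. Membranes were from infected Sf9 cells carrying receptor plus G-protein subunits, 35 μg/tube, with 10 μM GDP present.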

T1 sequence (Q9Y5N1 with tags, fused parts or gaps E19D): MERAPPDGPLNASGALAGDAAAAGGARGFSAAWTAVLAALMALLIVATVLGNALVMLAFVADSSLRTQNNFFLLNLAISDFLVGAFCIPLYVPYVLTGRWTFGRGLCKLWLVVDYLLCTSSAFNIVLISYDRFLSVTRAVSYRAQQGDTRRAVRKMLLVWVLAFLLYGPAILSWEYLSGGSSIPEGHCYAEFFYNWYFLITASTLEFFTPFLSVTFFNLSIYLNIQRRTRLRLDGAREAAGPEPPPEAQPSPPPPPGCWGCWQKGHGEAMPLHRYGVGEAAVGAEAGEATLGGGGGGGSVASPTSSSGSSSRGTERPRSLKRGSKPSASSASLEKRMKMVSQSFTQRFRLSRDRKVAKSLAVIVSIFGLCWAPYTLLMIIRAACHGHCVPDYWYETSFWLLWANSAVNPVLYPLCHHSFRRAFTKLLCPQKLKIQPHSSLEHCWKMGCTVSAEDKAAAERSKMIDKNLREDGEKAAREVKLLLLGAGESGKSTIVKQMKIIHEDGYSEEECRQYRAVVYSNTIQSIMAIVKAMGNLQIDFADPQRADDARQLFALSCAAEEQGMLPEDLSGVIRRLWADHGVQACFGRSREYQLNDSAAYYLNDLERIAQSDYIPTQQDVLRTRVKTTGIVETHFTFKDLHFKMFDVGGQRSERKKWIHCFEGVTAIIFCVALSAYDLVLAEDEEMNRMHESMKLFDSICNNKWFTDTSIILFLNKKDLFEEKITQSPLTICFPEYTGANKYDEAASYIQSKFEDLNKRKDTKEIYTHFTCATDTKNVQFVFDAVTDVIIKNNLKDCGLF

Ki, < 1000 nM:
N#Cc1cccc(-c2ccc(N3CCN(CC(=O)N4CCN(C5CCC5)CC4)CC3)nn2)c1 [Compound 997, 3-(6-{4-[2-(4-cyclobutylpiperazin-1-yl)-2-oxoethyl]piperazin-1-yl}pyridazin-3-yl)benzonitrile]
O=C(CN1CCN(c2ccc(-c3cc(C(F)(F)F)cc(C(F)(F)F)c3)nn2)CC1)N1CCN(C2CCC2)CC1 [Compound 998, 3-[3,5-bis(trifluoromethyl)phenyl]-6-{4-[2-(4-cyclobutylpiperazin-1-yl)-2-oxoethyl]piperazin-1-yl}pyridazine]
COc1ccc(N2CCN(CC(=O)N3CCN(C4CCC4)CC3)CC2)nn1 [Compound 999, 3-{4-[2-(4-cyclobutylpiperazin-1-yl)-2-oxoethyl]piperazin-1-yl}-6-methoxypyridazine]
O=C(CN1CCN(c2ccc(-c3ccncc3)nn2)CC1)N1CCN(C2CCC2)CC1 [Compound 1000, 3-{4-[2-(4-cyclobutylpiperazin-1-yl)-2-oxoethyl]piperazin-1-yl}-6-pyridin-4-ylpyridazine]
O=C(CN1CCN(c2ccc(-c3cncnc3)nn2)CC1)N1CCN(C2CCC2)CC1 [Compound 1001, 3-{4-[2-(4-cyclobutylpiperazin-1-yl)-2-oxoethyl]piperazin-1-yl}-6-pyrimidin-5-ylpyridazine]
O=C(CN1CCN(c2ccc(-c3ccccc3)nn2)CC1)N1CCN(C2CCC2)CC1 [Compound 1002, 3-{4-[2-(4-cyclobutylpiperazin-1-yl)-2-oxoethyl]piperazin-1-yl}-6-phenylpyridazine]
O=C(CN1CCN(c2ccc(-c3ccc(F)cc3)nn2)CC1)N1CCN(C2CCC2)CC1 [Compound 1003, 3-{4-[2-(4-cyclobutylpiperazin-1-yl)-2-oxoethyl]piperazin-1-yl}-6-(4-fluorophenyl)pyridazine]
O=C(CN1CCN(c2ccc(-c3cccc(F)c3)nn2)CC1)N1CCN(C2CCC2)CC1 [Compound 1004, 3-{4-[2-(4-cyclobutylpiperazin-1-yl)-2-oxoethyl]piperazin-1-yl}-6-(3-fluorophenyl)pyridazine]
O=C(CN1CCN(c2ccc(-c3ccccc3F)nn2)CC1)N1CCN(C2CCC2)CC1 [Compound 1005, 3-{4-[2-(4-cyclobutylpiperazin-1-yl)-2-oxoethyl]piperazin-1-yl}-6-(2-fluorophenyl)pyridazine]
O=C(CN1CCN(c2ccc(-c3ccc4ccccc4c3)nn2)CC1)N1CCN(C2CCC2)CC1 [Compound 1006, 3-{4-[2-(4-cyclobutylpiperazin-1-yl)-2-oxoethyl]piperazin-1-yl}-6-(2-naphthyl)pyridazine]
Cc1ccc(-c2ccc(N3CCN(CC(=O)N4CCN(C5CCC5)CC4)CC3)nn2)c(F)c1 [Compound 1007, 3-{4-[2-(4-cyclobutylpiperazin-1-yl)-2-oxoethyl]piperazin-1-yl}-6-(2-fluoro-4-methylphenyl)pyridazine]
Cc1ccc(F)c(-c2ccc(N3CCN(CC(=O)N4CCN(C5CCC5)CC4)CC3)nn2)c1 [Compound 1008, 3-{4-[2-(4-cyclobutylpiperazin-1-yl)-2-oxoethyl]piperazin-1-yl}-6-(2-fluoro-5-methylphenyl)pyridazine]
Cc1ccc(-c2ccc(N3CCN(CC(=O)N4CCN(C5CCC5)CC4)CC3)nn2)cc1F [Compound 1009, 3-{4-[2-(4-cyclobutylpiperazin-1-yl)-2-oxoethyl]piperazin-1-yl}-6-(3-fluoro-4-methylphenyl)pyridazine]
Cc1cc(-c2ccc(N3CCN(CC(=O)N4CCN(C5CCC5)CC4)CC3)nn2)ccc1F [Compound 1010, 3-{4-[2-(4-cyclobutylpiperazin-1-yl)-2-oxoethyl]piperazin-1-yl}-6-(4-fluoro-3-methylphenyl)pyridazine]
Cc1cccc(-c2ccc(N3CCN(CC(=O)N4CCN(C5CCC5)CC4)CC3)nn2)c1 [Compound 1011, 3-{4-[2-(4-cyclobutylpiperazin-1-yl)-2-oxoethyl]piperazin-1-yl}-6-(3-methylphenyl)pyridazine]
Cc1ccc(-c2ccc(N3CCN(CC(=O)N4CCN(C5CCC5)CC4)CC3)nn2)cc1 [Compound 1012, 3-{4-[2-(4-cyclobutylpiperazin-1-yl)-2-oxoethyl]piperazin-1-yl}-6-(4-methylphenyl)pyridazine]
CC(C)c1cccc(-c2ccc(N3CCN(CC(=O)N4CCN(C5CCC5)CC4)CC3)nn2)c1 [Compound 1013, 3-{4-[2-(4-cyclobutylpiperazin-1-yl)-2-oxoethyl]piperazin-1-yl}-6-(3-isopropylphenyl) pyridazine]
CC(C)c1ccc(-c2ccc(N3CCN(CC(=O)N4CCN(C5CCC5)CC4)CC3)nn2)cc1 [Compound 1014, 3-{4-[2-(4-cyclobutylpiperazin-1-yl)-2-oxoethyl]piperazin-1-yl}-6-(4-isopropylphenyl) pyridazine]
Cc1ccc(-c2ccc(N3CCN(CC(=O)N4CCN(C5CCC5)CC4)CC3)nn2)cc1C [Compound 1015, 3-{4-[2-(4-cyclobutylpiperazin-1-yl)-2-oxoethyl]piperazin-1-yl}-6-(3,4-dimethylphenyl) pyridazine]
Cc1cc(C)cc(-c2ccc(N3CCN(CC(=O)N4CCN(C5CCC5)CC4)CC3)nn2)c1 [Compound 1016, 3-{4-[2-(4-cyclobutylpiperazin-1-yl)-2-oxoethyl]piperazin-1-yl}-6-(3,5-dimethylphenyl) pyridazine]
CCc1ccc(-c2ccc(N3CCN(CC(=O)N4CCN(C5CCC5)CC4)CC3)nn2)cc1 [Compound 1017, 3-{4-[2-(4-cyclobutylpiperazin-1-yl)-2-oxoethyl]piperazin-1-yl}-6-(4-ethylphenyl)pyridazine]
CCCc1ccc(-c2ccc(N3CCN(CC(=O)N4CCN(C5CCC5)CC4)CC3)nn2)cc1 [Compound 1018, 3-{4-[2-(4-cyclobutylpiperazin-1-yl)-2-oxoethyl]piperazin-1-yl}-6-(4-propylphenyl)pyridazine]
CCc1cccc(-c2ccc(N3CCN(CC(=O)N4CCN(C5CCC5)CC4)CC3)nn2)c1 [Compound 1019, 3-{4-[2-(4-cyclobutylpiperazin-1-yl)-2-oxoethyl]piperazin-1-yl}-6-(3-ethylphenyl)pyridazine]
COc1cccc(-c2ccc(N3CCN(CC(=O)N4CCN(C5CCC5)CC4)CC3)nn2)c1 [Compound 1020, 3-{4-[2-(4-cyclobutylpiperazin-1-yl)-2-oxoethyl]piperazin-1-yl}-6-(3-methoxyphenyl) pyridazine]
O=C(CN1CCN(c2ccc(-c3ccc(OC(F)(F)F)cc3)nn2)CC1)N1CCN(C2CCC2)CC1 [Compound 1021, 3-{4-[2-(4-cyclobutylpiperazin-1-yl)-2-oxoethyl]piperazin-1-yl}-6-[4-(trifluoromethoxy)phenyl] pyridazine]
CCOc1cccc(-c2ccc(N3CCN(CC(=O)N4CCN(C5CCC5)CC4)CC3)nn2)c1 [Compound 1022, 3-{4-[2-(4-cyclobutylpiperazin-1-yl)-2-oxoethyl]piperazin-1-yl}-6-(3-ethoxyphenyl)pyridazine]
O=C(CN1CCN(c2ccc(-c3cccc(OC(F)(F)F)c3)nn2)CC1)N1CCN(C2CCC2)CC1 [Compound 1024, 3-{4-[2-(4-cyclobutylpiperazin-1-yl)-2-oxoethyl]piperazin-1-yl}-6-[3-(trifluoromethoxy)phenyl} pyridazine]
CSc1cccc(-c2ccc(N3CCN(CC(=O)N4CCN(C5CCC5)CC4)CC3)nn2)c1 [Compound 1025, 3-{4-[2-(4-cyclobutylpiperazin-1-yl)-2-oxoethyl]piperazin-1-yl}-6-[3-(methylthio)phenyl] pyridazine]
COc1ccc(-c2ccc(-c3ccc(N4CCN(CC(=O)N5CCN(C6CCC6)CC5)CC4)nn3)cc2)cc1 [Compound 1026, 3-{4-[2-(4-cyclobutylpiperazin-1-yl)-2-oxoethyl]piperazin-1-yl}-6-(4′-methoxybiphenyl-4-yl)pyridazine]
COc1ccc(-c2ccc(N3CCN(CC(=O)N4CCN(C5CCC5)CC4)CC3)nn2)cc1F [Compound 1027, 3-{4-[2-(4-cyclobutylpiperazin-1-yl)-2-oxoethyl]piperazin-1-yl}-6-(3-fluoro-4-methoxyphenyl) pyridazine]
COc1cc(F)c(-c2ccc(N3CCN(CC(=O)N4CCN(C5CCC5)CC4)CC3)nn2)cc1F [Compound 1028, 3-{4-[2-(4-cyclobutylpiperazin-1-yl)-2-oxoethyl]piperazin-1-yl}-6-(2,5-difluoro-4-methoxyphenyl) pyridazine]
COc1ccc2cc(-c3ccc(N4CCN(CC(=O)N5CCN(C6CCC6)CC5)CC4)nn3)ccc2c1 [Compound 1029, 3-{4-[2-(4-cyclobutylpiperazin-1-yl)-2-oxoethyl]piperazin-1-yl}-6-(6-methoxy-2-naphthyl)pyridazine]
CC(C)Oc1cccc(-c2ccc(N3CCN(CC(=O)N4CCN(C5CCC5)CC4)CC3)nn2)c1 [Compound 1030, 3-{4-[2-(4-cyclobutylpiperazin-1-yl)-2-oxoethyl]piperazin-1-yl}-6-(3-isopropoxyphenyl) pyridazine]
COc1cc(-c2ccc(N3CCN(CC(=O)N4CCN(C5CCC5)CC4)CC3)nn2)cc(OC)c1OC [Compound 1031, 3-{4-[2-(4-cyclobutylpiperazin-1-yl)-2-oxoethyl]paperazin-1-yl}-6-(3,4,5-trimethoxyphenyl) pyridazine]
COc1ccc(-c2ccc(N3CCN(CC(=O)N4CCN(C5CCC5)CC4)CC3)nn2)cc1 [Compound 1032, 3-{4-[2-(4-cyclobutylpiperazin-1-yl)-2-oxoethyl]piperazin-1-yl}-6-(4-methoxyphenyl) pyridazine]
